In patent US5883079A, “Method for inhibiting H. pylori infection in mammalian tissue” (Neose Technologies, Inc., priority 1998, dated 1999):
Several values for one entry are separate records, joined by “and”; a condition that tells them apart may be missing. Equal values may be shown once. Entries after “also recorded” stand apart in the source; their conditions may differ.

What was measured:
[1] = test system: H. pylori binding to HuTu-80 cell monolayer; test: H. pylori binding inhibition to HuTu-80 cell monolayers (microtiter, urease readout); format: cell-based, human (HuTu-80); H. pylori; settings: for IC50: Homo sapiens, HuTu80; for activity in inhibiting binding of H. pylori cells, in vitro: in words
Description: The cultures were maintained in Basal medium Eagle containing 10% fetal calf serum in T-75 flasks, at 37° C. and a 5% CO2 atmosphere. Cells were harvested by trypsin/EDTA release and plated on 96-well flat bottom microtiter plates. The microtiter plates were incubated for 2-3 days until the monolayers grew to confluence. Prior to binding inhibition tests, the monolayer was washed with Hanks Balanced Salt solution (HBSS) containing Ca^+2 and Mg^+2, 0.1% BSA, 50 mM HEPES, 0.01 phenol red or HBHPR.
H. pylori bacteria isolates were obtained from B. Marshall (from the University of Virginia) and grown on sheep blood agar, collected at 48 h, washed and suspended in a binding buffer of HBSS+0.1% bovine serum albumin+50 mM HEPES buffer+0.01% phenol red or HBHPR.
The same concentration of bacteria and test compound were combined for 10 minutes, then transferred onto the monolayer. Binding was allowed to occur for 20 min at room temperature under mild agitation. The unbound bacteria was washed away with 1 wash of HBHPR, then 2 washes of the same buffer without HEPES buffer (HBPR).
The presence of bound bacteria is indicated by the presence of bacterial urease which generates NH3, which raises the pH and changes the color to purple, near at OD595.
IC50 in mg/ml was determined for each compound tested. The test data is reported below in Table 1:
IC50 S were determined using the HuTu-80 cell line monolayers.

H. pylori [2] = settings: in words; cited from earlier work
[3] = in words; cited from earlier work
H. pylori [4] = settings: material treated with neuraminidase; cited from earlier work
Helicobacter pylori [5] = settings: in words; cited from earlier work
Helicobacter pylori [6] = test: Effectiveness at inhibiting Helicobacter pylori when treating mammals, compared with fetuin; set-up: species or system mammals; H. pylori; settings: vs fetuin
H. pylori [7] = test: In vivo animal test: H. pylori colonization in gnotobiotic piglets; set-up: bacterial colonies, colony forming units/gram of gastric epithelium, Experiment A / bacterial colonies, colony forming units/gram of gastric epithelium, Experiment B / bacterial colonies, colony forming units/gram of gastric epithelium, mean ± SD: scale not given here
Description: Gnotobiotic derived piglets (delivered by cesarean section and housed in a germ-free environment) were orally treated with 100 mg of 3'sialyl lactose in 5.0 ml of water.
(§1) Six day old gnotobiotic piglets were orally treated with seven doses of 100 mg each of 3' sialyl lactose, at about 8 hour intervals. As a control, the piglets were administered water. The third administration of 3' sialyl lactose and control was accompanied with 2×10^9 live H. pylori. Two piglets were administered 3'sialyl lactose and 2 piglets were administered the control.
as §1, with “Twenty one” for “Six”, “4×10^9” for “2×10^9”, “Four” for “Two”
The piglets were evaluated by determining bacterial colonies in blood-agar as colony forming units/gram of gastric epithelium (CFU/g). Gastric epithelium homogenates were plated on agar in serial 1:10 dilutions and bacterial colonies were counted on the plates, with 20-200 colonies/plate after 5 days.

[8] = test system: H. pylori binding to an erythrocyte receptor; settings: cited from earlier work; for hemagglutination inhibition (in words): vs NeuAc(2→6)-lactose / NeuAc(2→3)-lactose
Y-1 mouse adrenal cells = settings: in words; cited from earlier work

Molecule: CC(=O)N[C@H]1[C@H]([C@H](O)[C@H](O)CO)O[C@@](OC[C@H]2O[C@@H](O[C@H]3[C@H](O)[C@@H](O)C(O)O[C@@H]3CO)[C@H](O)[C@@H](O)[C@H]2O)(C(=O)O)C[C@@H]1O (stereo partly drawn) [6' sialyl lactose, N-acetylneuraminyl-α(2→6)-Gal β1→4 Glc, reference compound]
- IC50 [1]: > 10 mM

Molecule: Colloidal bismuth subcitrate [Colloidal bismuth subcitrate (CBS)]
- eradication of H. pylori (H. pylori [2]): ability to eradicate H. pylori
- relapse rates after cessation of therapy (H. pylori [2]): lower relapse rates
- effectiveness as a histamine H2 antagonist [3]: effective as a histamine H2 antagonist

Molecule: N-acetylneuraminyllactose [reference compound]
- decrease in MFI upon neuraminidase treatment (H. pylori [4]): 16.8%

Molecule: gangliotetraosylceramide
- recognition by H. pylori (Helicobacter pylori [5]): specifically recognizes

Molecule: #3: fraction # 3 corresponds with pure fetuin
- IC50, Expt C ([1]; HuTu-80, fetuin fraction, Expt C): 1300 µg/mL

Molecule: CC(=O)N[C@H]1[C@H]([C@H](O)[C@H](O)CO)O[C@@](O[C@H]2[C@@H](O)[C@@H](CO)O[C@@H](O[C@H]3[C@H](O)[C@@H](O)C(O)O[C@@H]3CO)[C@@H]2O)(C(=O)O)C[C@@H]1O (stereo partly drawn) [3' sialyl lactose, N-acetylneuraminyl-α(2→3)-Gal β1→4 Glc]
- times more effective at inhibiting Helicobacter pylori than fetuin (Helicobacter pylori [6]): more than 6.41 times
- bacterial colonies, colony forming units/gram of gastric epithelium, mean ± SD (H. pylori [7]; Experiments A and B together): 6.9 ± 5.9 CFU/g
- H. pylori binding inhibition in mammals (H. pylori [7]; in words, validated through in vivo mammalian test data): surprisingly effective inhibitor
- bacterial colonies, colony forming units/gram of gastric epithelium, Experiment A (H. pylori [7]; six day old piglets, oral, seven doses of 100 mg, 8 hour intervals, 2×10^9 live H. pylori, individual animals): 5.44 CFU/g and 0 CFU/g
- bacterial colonies, colony forming units/gram of gastric epithelium, Experiment B (H. pylori [7]; twenty one day old piglets, oral, seven doses of 100 mg, 8 hour intervals, 4×10^9 live H. pylori, individual animals): 4.46 CFU/g and 25.5 CFU/g and 3.71 CFU/g and 2.48 CFU/g
- hemagglutination inhibition (in words) [8]: preferentially inhibited
- IC50 [1]: 6 mM
- activity in inhibiting binding of H. pylori cells, in vitro [1]: surprisingly strongly inhibits H. pylori

Molecule: α2 -Macroglobulin: Sialoprotein which contains the NeuAc(2→3)Gal isomer of NeuAc-lactose
- concentration needed to produce 100% HAI ([8]; hemagglutination inhibition): 1.000 mg/mL
- hemagglutination inhibition (in words) [8]: also inhibited H. pylori binding, but at higher concentrations

Molecule: gangliotriaosylceramide
- recognition by H. pylori (Helicobacter pylori [5]): specifically recognizes

Molecule: fetuin: Sialoprotein which contains the NeuAc(2→3)Gal isomer of NeuAc-lactose
- decrease in MFI upon neuraminidase treatment (H. pylori [4]): 29.8%
- concentration needed to produce 100% HAI ([8]; hemagglutination inhibition): 0.500 mg/mL
- times as effective as bovine NeuAc-lactose ([8]; hemagglutination inhibition): 0.156 times
- times as effective as α2-Macroglobulin ([8]; hemagglutination inhibition): about 2 times
- hemagglutination inhibition (in words) [8]: also inhibited H. pylori binding, but at higher concentrations
- adherence to Y-1 cells (Y-1 mouse adrenal cells): blocked
- activity in inhibiting binding of H. pylori cells, in vitro [1]: minimal activity

Molecule: OC[C@H]1O[C@@H](O[C@H]2[C@H](O)[C@@H](O)C(O)O[C@@H]2CO)[C@H](O)[C@@H](O)[C@H]1O (stereo partly drawn) [lactose, reference compound]
- IC50 [1]: > 10 mM

Molecule: asialofetuin: asialofetuin
- decrease in MFI upon neuraminidase treatment (H. pylori [4]): 8.6%

Molecule: phosphatidylethanolamine
- recognition by H. pylori (Helicobacter pylori [5]): receptor; also recorded: specifically recognizes

B1: Glycophorin A: Sialoprotein which contains the NeuAc(2→3)Gal isomer of NeuAc-lactose (protein, UniProt P02724 20-150, looked up)
Glycophorin-A: LSTTEVAMHTSTSSSVTKSYISSQTNDTHKRDTYAATPRAHEVSEISVRTVYPPEEETGERVQLAHHFSEPEITLIIFGVMAGVIGTILLISYGIRRLIKKSPSDVKPLPSPDTDVPLSSVEIENPETSDQ
- concentration needed to produce 100% HAI ([8]; hemagglutination inhibition): 0.250 mg/mL
- hemagglutination inhibition (in words) [8]: also inhibited H. pylori binding, but at higher concentrations
